Experimental data as given in US8106186B2, “Transition metal phosphine complex, method for producing same, and anticancer agent containing transition metal phospine complex” (Nippon Chemical Industrial Co., Ltd., priority 2005, dated 2012).

Experiments:
[1] = tested on: Human acute myelocytic leukemia cells HL-60; assay: Evaluation of anticancer property 1: MTT viable cell assay (modified Mosmann method); assay type: cell-based; conditions: HL-60 cells, 24 hours culture, average of assays
Protocol: Human acute myelocytic leukemia cells cancer cells HL-60 was used as cancer cells. The cells were cultured in Rosewell Park Memorial Institute medium (RPMI 1640) supplemented with 10% fetal bovine serum, 1% antibiotic, and an antifungal agent in an atmosphere of 5% carbon dioxide in a moist incubator at 37° C.
Cells were washed with PBS. After the number of cells was determined, a suspension (1×10^6 cells/mL) was prepared with the same medium. The suspension was seeded in a sterile 96-well microplate at a density of 50,000 cells/well.
The wells were further cultured in the incubator for 24 hours.
The number of viable cells was determined by a modified Mosmann method (T. Mosmann, J. Immunnol. Method (1983)65, 55-63). […] The wells were cultured for another 3 hours under the same conditions. Formazan crystals formed by the enzyme activity of mitochondria in the cells were dissolved in 0.04 mol/HCl/isopropyl alcohol. The absorbance of each well was measured at 595 nm with a microplate reader (Bio-Rad 550). To remove the background, the absorbance of each well was measured at 630 nm. The absorbance at 630 nm was subtracted from the actual measured value. This is determined to be the number of viable cells.

[2] = tested on: female Sprauge-Dawley SPF rats (CrJ:CD (SD)); assay: Toxicity test by single oral administration to rats; assay type: in vivo, rat; conditions: for LD50: rats, single oral dose in corn oil, observed 14 days, from survival rate
Text: After female Sprauge-Dawley SPF rats (CrJ:CD (SD)) were quarantined and acclimated for about a week, healthy 8-week-old rats were selected in groups of five rats.

[3] = tested on: HCS-4 (cells derived from human tongue cancer); assay: Evaluation of anticancer property 2: MTT assay, tongue cancer cells; assay type: cell-based; conditions: HCS-4, RPMI 1640+10% FBS, assayed as in Evaluation 1; read-out: IC50, Cell derived from human tongue cancer
Protocol: (§1) The number of viable cells was determined by a modified Mosmann method (T. Mosmann, J. Immunnol. Method (1983)65, 55-63). That is, a solution of a tetrazolium salt (3,[4,5-dimethylthiazole-2-yl]-2,5-diphenyltetrazolium bromide, MTT) was added thereto. The wells were cultured for another 3 hours under the same conditions. Formazan crystals formed by the enzyme activity of mitochondria in the cells were dissolved in 0.04 mol/HCl/isopropyl alcohol. The absorbance of each well was measured at 595 nm with a microplate reader (Bio-Rad 550). To remove the background, the absorbance of each well was measured at 630 nm. The absorbance at 630 nm was subtracted from the actual measured value. This is determined to be the number of viable cells. […] For the values shown in Table 3, each of Compounds 1 to 3 was assayed three times, and the average value was shown.
(§2) Compounds (2) and (3) obtained in Examples 2 and 3 were assayed as in Evaluation 1 with HCS-4 (cells derived from human tongue cancer, medium: RPMI 1640+10% FBS), COLO205 (cells derived from human colon, medium: RPMI-1640+10% FBS), and SH-10-TC (cells derived from human gastric cancer, medium: RPMI-1640+10% FBS).

[4] = tested on: COLO205 (cells derived from human colon); assay: Evaluation of anticancer property 2: MTT assay, colon cells; assay type: cell-based; conditions: COLO205, RPMI-1640+10% FBS, assayed as in Evaluation 1; read-out: IC50, Cell derived from human colon
Protocol: as §1, §2

[5] = tested on: SH-10-TC (cells derived from human gastric cancer); assay: Evaluation of anticancer property 2: MTT assay, gastric cancer cells; assay type: cell-based; conditions: RPMI-1640+10% FBS, assayed as in Evaluation 1, read-out: IC50, Cell derived from human gastrict cancer
Protocol: as §1, §2

Row | Substance | IC50 [1] [nM] | Death of rats, 100 mg/kg group ([2]; single oral dose 100 mg/kg, five rats, death at 5 days after administration) | Death of rats, 300 mg/kg group ([2]; single oral dose 300 mg/kg, five rats, deaths by day 2) | Death of rats, 20 and 50 mg/kg groups ([2]; single oral dose 20 and 50 mg/kg, five rats per group) | IC50 [3] [nM] | IC50 [4] [nM] | IC50 [5] [nM] | LD50 [2]
1 | bis[1,2-bis(phenyl(2-pyridyl)phosphino)ethane]gold(I) chloride [Compound (5), reference compound] | 3560 | one rat died | three rats died | no death was observed |  |  |  | 
2 | bis((R,R)-1,2-bis(tert-butyl(2-pyridyl)phosphino)ethane)gold(I) chloride [Compound (3)] | 3580 |  |  |  | 3500 | 1500 | 900 | 300 mg/kg or more
3 | bis(rac-1,2-bis(tert-butyl(2-pyridyl)phosphino)ethane)gold(I) chloride [Compound (1)] | 4510 |  |  |  |  |  |  | 300 mg/kg or more
4 | bis(meso-1,2-bis(tert-butyl(2-pyridyl)phosphino)ethane)gold(I) chloride [Compound (2)] | 5130 |  |  |  | 1400 | 2200 | 1200 | 300 mg/kg or more
